According to patent US20230085307A1, “PYRIDAZINONE COMPOUND AND HERBICIDE” (NISSAN CHEMICAL CORPORATION, priority 2019, published 2023):

Experiments:
Japanese bulrush = test: Test Example 1: herbicidal activity, application before weed generation under submerged conditions (Table 16, symbol B); type: in vivo, Japanese bulrush (Schoenoplectus juncoides); settings: amount of applied herbicide 320 g/ha
Summary of the method: (§1)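 Emulsion formulation, water-diluted to set dose, was put onto the flooded surface (4 cm depth, alluvial soil) the same day weeds were sown and 2.5-leaf rice transplanted. After 3 weeks at 25-30 °C under glass, each species was rated 0 (≤5% kill) to 5 (≥90% kill).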

oval-leafed pondweed = test: Test Example 1: herbicidal activity, application before weed generation under submerged conditions (Table 16, symbol C); type: in vivo, oval-leafed pondweed (Monochoria vaginalis); settings: amount of applied herbicide 320 g/ha
Summary of the method: as §1

barnyard grass [1] = test: Test Example 3: herbicidal effect by foliage application, Wagner pot (Table 18, symbol H); type: in vivo, barnyard grass (Echinochloa crus-galli); settings: 320 g/ha
Summary of the method: (§2)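 Plants were sown in alluvial soil held under 0.1–0.5 cm standing water and grown 14 days in a greenhouse at 25–30 °C. An emulsifiable formulation, water-diluted to the set dose, was then sprayed onto the foliage, and effects were scored three weeks later using previously defined criteria.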

Chinese sprangletop = test: Test Example 3: herbicidal effect by foliage application, Wagner pot (Table 18, symbol D); type: in vivo, chinese sprangletop (Leptochloa chinensis); settings: 320 g/ha
Summary of the method: as §2

rice flat sedge = test: Test Example 3: herbicidal effect by foliage application, Wagner pot (Table 18, symbol E); type: in vivo, rice flat sedge (Cyperus iria); settings: 320 g/ha
Summary of the method: as §2

southern crabgrass = test: Test Example 4: herbicidal effect by soil treatment (Table 19, symbol F); type: in vivo, southern crabgrass (Digitaria ciliaris); settings: amount of applied herbicide 320 g/ha
Summary of the method: (§3)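 Scoring uses the grading scale of an earlier test, three weeks post-application. Treatment consists of spraying a diluted emulsion formulation across the surface of sterilized diluvial soil in which seeds are buried near 1.5 cm deep; boxes are kept in a greenhouse between 25° C. and 30° C.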

green foxtail [2] = test: Test Example 4: herbicidal effect by soil treatment (Table 19, symbol G); type: in vivo, green foxtail (Setaria viridis); settings: amount of applied herbicide 320 g/ha
Summary of the method: as §3

barnyard grass [3] = test: Test Example 4: herbicidal effect by soil treatment (Table 19, symbol H); type: in vivo, barnyard grass (Echinochloa crus-galli); settings: amount of applied herbicide 320 g/ha
Summary of the method: as §3

windgrass [4] = test: Test Example 4: herbicidal effect by soil treatment (Table 19, symbol L); type: in vivo, windgrass (Apera spica-venti); settings: amount of applied herbicide 320 g/ha
Summary of the method: as §3

velvetleaf = test: Test Example 4: herbicidal effect by soil treatment (Table 19, symbol M); type: in vivo, velvetleaf (Abutilon theophrasti); settings: amount of applied herbicide 320 g/ha
Summary of the method: as §3

redroot pigweed = test: Test Example 4: herbicidal effect by soil treatment (Table 19, symbol N); type: in vivo, redroot pigweed (Amaranthus retroflexus); settings: amount of applied herbicide 320 g/ha
Summary of the method: as §3

green foxtail [5] = test: Test Example 5: herbicidal effect by foliage application, plastic box (Table 20, symbol G); type: in vivo, green foxtail (Setaria viridis); settings: 320 g/ha, foliage application after 14-day growth, evaluated three weeks after application
Summary of the method: (§4)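 Post-emergence foliar test in sterilized diluvial soil. Compound applied as water-diluted emulsion at a predetermined rate to 14-day-old plants; evaluation at three weeks.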

barnyard grass [6] = test: Test Example 5: herbicidal effect by foliage application, plastic box (Table 20, symbol H); type: in vivo, barnyard grass (Echinochloa crus-galli); settings: 320 g/ha, foliage application after 14-day growth, evaluated three weeks after application
Summary of the method: as §4

wild oat = test: Test Example 5: herbicidal effect by foliage application, plastic box (Table 20, symbol I); type: in vivo, wild oat (Avena fatua); settings: 320 g/ha, foliage application after 14-day growth, evaluated three weeks after application
Summary of the method: as §4

windgrass [7] = test: Test Example 5: herbicidal effect by foliage application, plastic box (Table 20, symbol L); type: in vivo, windgrass (Apera spica-venti); settings: 320 g/ha, foliage application after 14-day growth, evaluated three weeks after application
Summary of the method: as §4

lambsquarters = test: Test Example 5: herbicidal effect by foliage application, plastic box (Table 20, symbol O); type: in vivo, lambsquarters (Chenopodium album); settings: 320 g/ha, foliage application after 14-day growth, evaluated three weeks after application
Summary of the method: as §4

persian speedwell = test: Test Example 5: herbicidal effect by foliage application, plastic box (Table 20, symbol R); type: in vivo, Persian speedwell (Veronica persica); settings: 320 g/ha, foliage application after 14-day growth, evaluated three weeks after application
Summary of the method: as §4

Row | SMILES | Herbicidal effect, B: Japanese bulrush (Japanese bulrush) | Herbicidal effect, C: oval-leafed pondweed (oval-leafed pondweed) | herbicidal effect on barnyard grass (H) (barnyard grass [1]) | herbicidal effect on Chinese sprangletop (D) (Chinese sprangletop) | herbicidal effect on rice flat sedge (E) (rice flat sedge) | Herbicidal effect by soil treatment, F: southern crabgrass (southern crabgrass) | Herbicidal effect by soil treatment, G: green foxtail (green foxtail [2]) | Herbicidal effect by soil treatment, H: barnyard grass (barnyard grass [3]) | Herbicidal effect by soil treatment, L: windgrass (windgrass [4]) | Herbicidal effect by soil treatment, M: velvetleaf (velvetleaf) | Herbicidal effect by soil treatment, N: redroot pigweed (redroot pigweed) | herbicidal effect on G: green foxtail (evaluation grade 0-5) (green foxtail [5]) | herbicidal effect on H: barnyard grass (evaluation grade 0-5) (barnyard grass [6]) | herbicidal effect on I: wild oat (evaluation grade 0-5) (wild oat) | herbicidal effect on L: windgrass (evaluation grade 0-5) (windgrass [7]) | herbicidal effect on O: lambsquarters (evaluation grade 0-5) (lambsquarters) | herbicidal effect on R: persian speedwell (evaluation grade 0-5) (persian speedwell)
1 | CCCC(=O)Oc1c(C)nn(C)c(=O)c1-c1c(-c2ccc(C#N)cc2)sc2c(F)cccc12 [4-053] | 3 (Herbicidal rate of 40% or more and less than 70%) | 2 (Herbicidal rate of 20% or more and less than 40%) | 4 (Herbicidal rate of 70% or more and less than 90%) | 3 (Herbicidal rate of 40% or more and less than 70%) | 4 (Herbicidal rate of 70% or more and less than 90%) | 0 (Herbicidal rate of 5% or less (almost no effect)) | 2 (Herbicidal rate of 20% or more and less than 40%) | 0 (Herbicidal rate of 5% or less (almost no effect)) | 0 (Herbicidal rate of 5% or less (almost no effect)) | 2 (Herbicidal rate of 20% or more and less than 40%) | 5 (Herbicidal rate of 90% or more (almost completely withered)) | 0 (Herbicidal rate of 5% or less (almost no effect)) | 2 (Herbicidal rate of 20% or more and less than 40%) | 2 (Herbicidal rate of 20% or more and less than 40%) | 4 (Herbicidal rate of 70% or more and less than 90%) | 4 (Herbicidal rate of 70% or more and less than 90%) | 5 (Herbicidal rate of 90% or more (almost completely withered))
2 | Cc1nn(C)c(=O)c(-c2c(-c3ccc(Cl)c(F)c3)sc3c(F)cccc23)c1O [4-054] | 3 (Herbicidal rate of 40% or more and less than 70%) | 0 (Herbicidal rate of 5% or less (almost no effect)) | 2 (Herbicidal rate of 20% or more and less than 40%) | 0 (Herbicidal rate of 5% or less (almost no effect)) | 0 (Herbicidal rate of 5% or less (almost no effect)) | 0 (Herbicidal rate of 5% or less (almost no effect)) | 0 (Herbicidal rate of 5% or less (almost no effect)) | 0 (Herbicidal rate of 5% or less (almost no effect)) | 0 (Herbicidal rate of 5% or less (almost no effect)) | 0 (Herbicidal rate of 5% or less (almost no effect)) | 2 (Herbicidal rate of 20% or more and less than 40%) | 3 (Herbicidal rate of 40% or more and less than 70%) | 4 (Herbicidal rate of 70% or more and less than 90%) | 0 (Herbicidal rate of 5% or less (almost no effect)) | 0 (Herbicidal rate of 5% or less (almost no effect)) | 3 (Herbicidal rate of 40% or more and less than 70%) | 5 (Herbicidal rate of 90% or more (almost completely withered))
